Data reported in patent publication US20070123592A1, “Terephthalamide peptidomimetic compounds and methods” (YALE UNIVERSITY, priority 2004, published 2007).
Where “and” joins values, the source holds several entries; their conditions need not be identical. Identical values can stand only once.

Legend:
Bcl-xL/Bak complex = target: T1, Bcl-xL/Bak complex (Homo sapiens, UniProt Q07817); assay: Fluorescence polarization competition assay (displacement of fluorescein-labeled Bak peptide from Bcl-xL); type: binding; settings: for Ki / K1 ± S.D.: 15 nM Fl-Bak, 184 nM Bcl-xL, 10 mM PBS pH 7.4, 25° C., mean of three independent experiments; for Ki: read-out: K1 ± S.D.; for affinity / activity in disrupting the Bcl-xL/Bak interaction (in words): summary of Table 1
T1 construct: made in house
T1 sequence (Q07817 whole entry, species assumed, one chain of several): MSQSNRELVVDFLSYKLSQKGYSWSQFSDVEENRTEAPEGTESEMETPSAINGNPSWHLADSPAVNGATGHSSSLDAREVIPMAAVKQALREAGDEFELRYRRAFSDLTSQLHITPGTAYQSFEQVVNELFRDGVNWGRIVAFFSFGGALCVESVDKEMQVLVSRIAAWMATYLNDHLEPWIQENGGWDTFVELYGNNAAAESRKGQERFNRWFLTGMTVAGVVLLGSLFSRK
Experimental: Fluorescence polarization experiments were conducted on a Photon Technology International instrument using a 0.3 cm path length cuvette.

15N-labeled Bcl-xL = 15N-labeled Bcl-xL (Homo sapiens, UniProt Q07817); assay: (15N,1H)-2D-HSQC amide chemical shift perturbation mapping; type: binding; settings: 2 mM Bcl-xL, 0, 1, 2 mM compound, 10% DMSO/D2O, 25° C., PBS pH 7.0
Sequence of 15N-labeled Bcl-xL (Q07817 whole entry): as the sequence (Q07817 whole entry, species assumed, one chain of several) above
Experimental: (^15N, ^1H)-2D-HSQC spectra were recorded on a Varian DPX-600 spectrometer. The concentration of Bcl-xL was 2 mM, with 0, 1 mM, 2 mM 3-26, respectively, in 10% DMSO/D2O (25° C., 10.0 mM PBS, pH 7.0).
To structurally probe the binding mode of the terephthalamide, (^15N, ^1H)-2D-amide chemical shift perturbation mapping with ^15N-labeled Bcl-xL were performed as above. Addition of compound 3-26 led to shifts in a number of residues on the surface of Bcl-xL. […] These affected residues all lie in the shallow cleft on the protein into which the Bak helix binds.

Structure (SMILES) | Ki (Bcl-xL/Bak complex) | affinity / activity in disrupting the Bcl-xL/Bak interaction (in words) (Bcl-xL/Bak complex) | further results
CC(C)C[C@H](NC(=O)c1ccc(C(=O)N(C(C)C)C(C)C)cc1NC(C)C)C(=O)O [Compound 3-17, (S)-2-(4-Diisopropylcarbamoyl-2-isopropylamino-benzoylamino)-4-methyl-pentanoic acid] | 3.31 ± 0.345 µM | – | affinity less than 2-isopropoxy analogue 3-10 (Bcl-xL/Bak complex; relative to 3-10): 4 fold
COC(=O)[C@H](CC(C)C)NC(=O)c1ccc(C(=O)N(C(C)C)C(C)C)cc1OC [Compound 3-26, (S)-2-(4-Diisopropylcarbamoyl-2-methoxy-benzoylamino)-4-methyl-pentanoic acid methyl ester] | 1.85 ± 0.318 µM | – | amide chemical shift changes of Bcl-xL residues on addition of inhibitor (15N-labeled Bcl-xL): significant chemical shift changes
CC(C)Oc1cc(C(=O)N(C)C)ccc1C(=O)N[C@@H](Cc1ccccc1)C(=O)O [Compound 3-35, (S)-2-(4-Dimethylcarbamoyl-2-isopropoxy-benzoylamino)-3-phenyl-propionic acid] | 8.92 ± 3.59 µM | – | –
CC(C)Oc1cc(C(=O)N(c2ccccc2)c2ccccc2)ccc1C(=O)N[C@@H](C)C(=O)O [Compound 3-42, (S)-2-(4-Diphenylcarbamoyl-2-isopropoxy-benzoylamino)-propionic acid] | 260 ± 58 µM | most of the affinity was lost | –
CC(C)C[C@H](NC(=O)c1ccc(C(=O)N(c2ccccc2)c2ccccc2)cc1OC(C)C)C(=O)O [Compound 3-43, (S)-2-(4-Diphenylcarbamoyl-2-isopropoxy-benzoylamino)-4-methyl-pentanoic acid] | 780 ± 174 µM | most of the affinity was lost | –
COC(=O)[C@H](CC(C)C)NC(=O)c1ccc(C(=O)N(c2ccccc2)c2ccccc2)cc1OC(C)C [Compound 3-44, (S)-2-(4-Diphenylcarbamoyl-2-isopropoxy-benzoylamino)-4-methyl-pentanoic acid methyl ester] | – | most of the affinity was lost | K1 ± S.D. (Bcl-xL/Bak complex): No affinity
CC(C)Oc1cc(C(=O)N(c2ccccc2)c2ccccc2)ccc1C(=O)N[C@@H](Cc1ccccc1)C(=O)O [Compound 3-45, (S)-2-(4-Diphenylcarbamoyl-2-isopropoxy-benzoylamino)-3-phenyl-propionic acid] | – | most of the affinity was lost | K1 ± S.D. (Bcl-xL/Bak complex): No affinity
CC(C)CC(NC(=O)c1ccc(C(=O)NCC(=O)O)cc1O)C(=O)O (centres unmarked) [Compound 3-46] | – | – | K1 ± S.D. (Bcl-xL/Bak complex): No affinity

Continued, in another order:

Ki (Bcl-xL/Bak complex) | affinity / activity in disrupting the Bcl-xL/Bak interaction (in words) (Bcl-xL/Bak complex) | Structure (SMILES) | further results
0.78 µM and 0.781 µM | low micro-molar Ki values | COC(=O)[C@H](CC(C)C)NC(=O)c1ccc(C(=O)N(C(C)C)C(C)C)cc1OC(C)C [Compound 3-9, (S)-2-(4-Diisopropylcarbamoyl-2-isopropoxy-benzoylamino)-4-methyl-pentanoic acid methyl ester] | –
0.839 ± 0.171 µM | – | CC(C)C[C@H](NC(=O)c1ccc(C(=O)N(C(C)C)C(C)C)cc1OC(C)C)C(=O)O [Compound 3-10] | –
– | did not show activity | COC(=O)[C@H](CC(C)C)NC(=O)c1ccc(C(=O)N(CC(C)C)[C@@H](C)C(=O)OC)cc1OC(C)C [Compound 3-22, (S)-2-{4-[Isobutyl-((S)-1-methoxycarbonyl-ethyl)-carbamoyl]-2-isopropoxy-benzoylamino}-4-methyl-pentanoic acid methyl ester] | K1 ± S.D. (Bcl-xL/Bak complex): No affinity
8.34 ± 1.61 µM | – | COC(=O)[C@H](C)NC(=O)c1ccc(C(=O)N(C)C)cc1OC(C)C [Compound 3-33, (S)-2-(4-Dimethylcarbamoyl-2-isopropoxy-benzoylamino)-propionic acid methyl ester] | –
2.44 ± 0.947 µM | low micro-molar Ki values | CCN(CC)C(=O)c1ccc(C(=O)N[C@@H](C)C(=O)OC)c(OC(C)C)c1 [Compound 3-37, (S)-2-(4-Diethylcarbamoyl-2-isopropoxy-benzoylamino)-propionic acid methyl ester] | –
11.4 ± 5.09 µM | – | CCN(CC)C(=O)c1ccc(C(=O)N[C@@H](CC(C)C)C(=O)OC)c(OC(C)C)c1 [Compound 3-38, (S)-2-(4-Diethylcarbamoyl-2-isopropoxy-benzoylamino)-4-methyl-pentanoic acid methyl ester] | –
8.76 ± 2.78 µM | – | COC(=O)[C@H](C)NC(=O)c1ccc(C(=O)N(CC(C)C)CC(C)C)cc1OC(C)C [Compound 3-39, (S)-2-(4-Diisobutylcarbamoyl-2isopropoxy-benzoylamino)-propionic acid methyl ester] | –
8.36 ± 3.8 µM | – | COC(=O)[C@H](CC(C)C)NC(=O)c1ccc(C(=O)N(CC(C)C)CC(C)C)cc1OC(C)C [Compound 3-40, (S)-2-(4-Diisobutylcarbamoyl-2-isopropoxy-benzoylamino)-4-methyl-pentanoic acid methyl ester] | –
138 ± 49.5 µM | – | COC(=O)[C@@H](NC(=O)c1ccc(C(=O)N(CC(C)C)CC(C)C)cc1OC(C)C)C(C)C [Compound 3-41, (S)-2-(4-Diisobutylcarbamoyl-2-isopropoxy-benzoylamino)-3-methyl-butyric acid methyl ester] | –
